What was measured:
[1] = test system: alpha-glucosidase activity of rat intestinal acetone powder extract; assay: Rat digestive enzyme assay, PNP α-D-glucoside substrate; assay type: biochemical
Protocol: (§1) Rat intestinal acetone powder extract was purchased from Sigma (11630 lot SLBB6071V) to give results more closely related to digestion. 100 mg of the acetone powder was mixed with 1 ml cold PBS homogenised, sonicated briefly and then spun at 12K rpm for 3 mins.

[2] = in vivo; cited from earlier work
rodent pancreatic cell = rodent pancreatic cell studies; cited from earlier work
[3] = test system: digestive enzymes of rat intestinal acetone powder extract; assay: Rat digestive enzyme assays, all activities measured; assay type: biochemical
Protocol: as §1

| Compound | inhibition of the alpha-glucosidase activity (in words) [1] | effective dose against health risks of excessive intake of fast-digestible carbohydrates [2] | postprandial blood glucose (in words) [2] | glucose induced-insulin secretion (in words) (rodent pancreatic cell) | inhibition of the digestive enzymes / activities measured (in words) [3] |
| --- | --- | --- | --- | --- | --- |
| OC[C@H]1NCC[C@@H](O)[C@@H]1O [fagomine, 1,2-dideoxynojirimycin] | inhibited | 1 mg/kg | lowers postprandial blood glucose | potentiate glucose induced-insulin secretion |  |
| OC[C@H]1NCC[C@H](O)[C@H]1O [3,4-diepi fagomine, 3,4-diepifagomine] |  |  |  |  | inhibited none of the activities measured |
| OC[C@H]1NCC[C@H](O)[C@@H]1O [3-epifagomine] |  |  |  |  | inhibited none of the activities measured |

Reference: patent US20160213733A1, “CHARACTERIZATION OF RICE” (Phytoquest Limited, priority 2013, published 2016)
